From ChEMBL document CHEMBL1141148, “Antidiabetic activity of passive nonsteroidal glucocorticoid receptor modulators” (J Med Chem, 2005)
Values joined by “and” are separate entries in the source; they are usually repeats but may differ in a detail not shown here. Identical values can stand only once.

Experiments:
Mus musculus [1] = organism: Mus musculus; experiment: Final weight of the ob/ob mice after 13 days of oral treatment at 100 mpk b.i.d.; assay type: functional
[2] = Insulin levels in ob/ob mice after 13 days of oral dose at 10 mpk b.i.d.; assay type: ADME; details: mouse, in vivo, 10 mg/kg, 312 h
Mus musculus [3] = organism: Mus musculus; experiment: Final weight of the ob/ob mice after 13 days of oral treatment at 10 mpk b.i.d.; assay type: functional
[4] = Aspartate aminotransferase (AST) levels in ob/ob mice after 13 days of oral dose at 10 mpk b.i.d.; assay type: ADME; details: mouse, in vivo, 10 mg/kg, 312 h
[5] = Compound level in plasma in ob/ob mice after 13 days of 100 mpk oral dose of compound; assay type: ADME; details: mouse, 100 mg/kg, read-out: Level
[6] = Alanine aminotransferase (ALT) levels in ob/ob mice after 13 days of oral dose at 10 mpk b.i.d.; assay type: ADME; details: mouse, in vivo, 10 mg/kg, 312 h
[7] = Free levels in ob/ob mice after 13 days of oral dose at 100 mpk b.i.d.; assay type: ADME; details: mouse, in vivo, 100 mg/kg, 312 h
Mus musculus [8] = organism: Mus musculus; experiment: Initial weight of the ob/ob mice before oral treatment at 100 mpk b.i.d. for 13 days; assay type: functional
[9] = Glucose levels in ob/ob mice after 13 days of oral dose at 100 mpk b.i.d.; assay type: ADME; details: mouse, in vivo, 100 mg/kg, 312 h
[10] = Aspartate aminotransferase (AST) levels in ob/ob mice after 13 days of oral dose at 100 mpk b.i.d.; assay type: ADME; details: mouse, in vivo, 100 mg/kg, 312 h
[11] = Free fatty acid (FFA) levels in ob/ob mice after 13 days of oral dose at 10 mpk b.i.d.; assay type: ADME; details: mouse, in vivo, 10 mg/kg, 312 h
[12] = Clearance of the compound in rat after 5 mg/kg iv dose was determined; details: in vivo
Mus musculus [13] = organism: Mus musculus; experiment: Initial weight of the ob/ob mice before oral treatment at 10 mpk b.i.d. for 13 days; assay type: functional
[14] = Glucose levels in ob/ob mice after 13 days of oral dose at 10 mpk b.i.d.; assay type: ADME; details: mouse, in vivo, 10 mg/kg, 312 h
[15] = Insulin levels in ob/ob mice after 14 days of oral dose at 100 mpk b.i.d.; assay type: ADME; details: mouse, in vivo, 100 mg/kg, 336 h
[16] = Cholesterol levels in ob/ob mice after 30 days of oral dose at 100 mpk b.i.d.; assay type: ADME; details: mouse, in vivo, 100 mg/kg, 720 h
[17] = Free fatty acid (FFA) levels in ob/ob mice after 30 days of oral dose at 100 mpk b.i.d.; assay type: ADME; details: mouse, in vivo, 100 mg/kg, 720 h
[18] = Liver TAT levels in ob/ob mice after 14 days of oral dose at 100 mpk b.i.d.; assay type: ADME, tissue-based; details: mouse, in vivo, 100 mg/kg, 336 h
[19] = Glycogen levels in ob/ob mice after 14 days of oral dose at 100 mpk b.i.d.; assay type: ADME; details: mouse, in vivo, 100 mg/kg, 336 h
[20] = Area under the concentration-time curve in SD rats after 5 mg/kg oral dose; assay type: ADME, organism-based; set-up: dose 5 mg/kg, route oral; details: rat, in vivo
[21] = Triglyceride levels in ob/ob mice after 30 days of oral dose at 30 mpk b.i.d.; assay type: ADME; details: mouse, in vivo, 30 mg/kg, 720 h
[22] = Glucose levels in ob/ob mice after 14 days of oral dose at 100 mpk b.i.d.; assay type: ADME; details: mouse, in vivo, 100 mg/kg, 336 h
[23] = Free fatty acid (FFA) levels in ob/ob mice after 14 days of oral dose at 30 mpk b.i.d.; assay type: ADME; details: mouse, in vivo, 30 mg/kg, 336 h
[24] = Glycogen levels in ob/ob mice after 14 days of oral dose at 30 mpk b.i.d.; assay type: ADME; details: mouse, in vivo, 30 mg/kg, 336 h
Mus musculus [25] = organism: Mus musculus; experiment: Final weight of the ob/ob mice after 14 days of oral treatment at 100 mpk b.i.d.; assay type: functional
[26] = Cholesterol levels in ob/ob mice after 30 days of oral dose at 30 mpk b.i.d.; assay type: ADME; details: mouse, in vivo, 30 mg/kg, 720 h
Mus musculus [27] = organism: Mus musculus; experiment: Initial weight of the ob/ob mice before oral treatment at 30 mpk b.i.d. for 14 days; assay type: functional
[28] = Plasma protein binding of tritium labeled compound in human plasma was determined; assay type: ADME, cell-free; details: read-out: Protein binding
[29] = Cholesterol levels in ob/ob mice after 14 days of oral dose at 30 mpk b.i.d.; assay type: ADME; details: mouse, in vivo, 30 mg/kg, 336 h
[30] = HbA1c levels in ob/ob mice after 30 days of oral dose at 30 mpk b.i.d.; assay type: ADME; details: mouse, in vivo, 30 mg/kg, 720 h
[31] = Aspartate aminotransferase /alanine aminotransferase levels in ob/ob mice after 30 days of oral dose at 30 mpk b.i.d.; assay type: ADME; details: mouse, in vivo, 30 mg/kg, 720 h
[32] = Free fatty acid (FFA) levels in ob/ob mice after 30 days of oral dose at 30 mpk b.i.d.; assay type: ADME; details: mouse, in vivo, 30 mg/kg, 720 h
[33] = Oral bioavailability in SD rats after 5 mg/kg oral dose; assay type: ADME, organism-based; details: Sprague-Dawley, rat, in vivo
[34] = Insulin levels in ob/ob mice after 14 days of oral dose at 30 mpk b.i.d.; assay type: ADME; details: mouse, in vivo, 30 mg/kg, 336 h
Mus musculus [35] = organism: Mus musculus; experiment: Initial weight of the ob/ob mice before oral treatment at 100 mpk b.i.d. for 14 days; assay type: functional
[36] = Liver TAT levels in ob/ob mice after 14 days of oral dose at 30 mpk b.i.d.; assay type: ADME, tissue-based; details: mouse, in vivo, 30 mg/kg, 336 h
[37] = Triglyceride levels in ob/ob mice after 30 days of oral dose at 100 mpk b.i.d.; assay type: ADME; details: mouse, in vivo, 100 mg/kg, 720 h
[38] = Plasma protein binding of tritium labeled compound in rat plasma was determined; assay type: ADME, cell-free; details: read-out: Protein binding
[39] = HbA1c levels in ob/ob mice after 30 days of oral dose at 100 mpk b.i.d.; details: mouse, in vivo, 100 mg/kg, 720 h
[40] = Aspartate aminotransferase /alanine aminotransferase levels in ob/ob mice after 30 days of oral dose at 100 mpk b.i.d.; assay type: ADME; details: mouse, in vivo, 100 mg/kg, 720 h
[41] = Free fatty acid (FFA) levels in ob/ob mice after 14 days of oral dose at 100 mpk b.i.d.; assay type: ADME; details: mouse, in vivo, 100 mg/kg, 336 h
[42] = Cholesterol levels in ob/ob mice after 14 days of oral dose at 100 mpk b.i.d.; assay type: ADME; details: mouse, in vivo, 100 mg/kg, 336 h
Mus musculus [43] = organism: Mus musculus; experiment: Final weight of the ob/ob mice after 14 days of oral treatment at 30 mpk b.i.d.; assay type: functional
[44] = Glucose levels in ob/ob mice after 14 days of oral dose at 30 mpk b.i.d.; assay type: ADME; details: mouse, in vivo, 30 mg/kg, 336 h

Structure (SMILES): Cc1c(NS(C)(=O)=O)cccc1N(Cc1ccccc1)Cc1ccc(Oc2ccc(OCC(=O)O)cc2)cc1
- Weight (Mus musculus [1]): 46.6 g
- Level [2]: 0.02 µg/mL
- Weight (Mus musculus [3]): 49.3 g
- Level [4]: 420 units/mL
- concentration at 312 h [5]: 1.6 µg/mL
- Level [6]: 786 units/mL and 282 units/mL
- Level [7]: 1 mequiv/L
- Weight (Mus musculus [8]): 46 g
- Level [9]: 2900 µg/mL
- Level [10]: 330 units/mL
- Level [11]: 1.3 mequiv/L
- Clearance [12]: 233 mL/min/kg
- Weight (Mus musculus [13]): 45.4 g
- Level [14]: 3330 µg/mL

Structure (SMILES): Cc1c(NS(C)(=O)=O)cccc1N(Cc1ccc(Oc2ccc(F)c(OCC(=O)O)c2)cc1)Cc1ccc(F)cc1F
- Level [15]: 0.0328 µg/mL
- Level [16]: 2390 µg/mL
- Level [17]: 1.27 mequiv/L
- Level [18]: 2.4 nmol ofpHB/min/mgof protein
- Level [19]: 44.2 mg/g
- AUC [20]: 3850 ng·h/mL
- Level [21]: 2140 µg/mL
- Level [22]: 2330 µg/mL
- Level [23]: 0.99 mequiv/L
- Level [24]: 54.6 mg/g
- Weight (Mus musculus [25]): 46.9 g
- Level [26]: 2660 µg/mL
- Weight (Mus musculus [27]): 41.5 g
- fraction unbound [28]: 0.001
- Level [29]: 2250 µg/mL
- Level [30]: 8.9%
- Level [31]: 395 units/mL
- Level [32]: 0.99 mequiv/L
- bioavailability [33]: 40%
- Level [34]: 0.025 µg/mL
- Weight (Mus musculus [35]): 40 g
- Level [36]: 1.7 nmol ofpHB/min/mgof protein
- Level [37]: 1630 µg/mL
- fraction unbound [38]: 0.001
- Level [39]: 7.7%
- Level [40]: 303 units/mL
- Level [41]: 1.01 mequiv/L
- Level [42]: 1340 µg/mL
- Weight (Mus musculus [43]): 49.2 g
- Level [44]: 3140 µg/mL
